The source of these data is ChEMBL document CHEMBL1155792, “QSAR prediction of inhibition of aldose reductase for flavonoids” (Bioorg Med Chem, 2008).

The target in the test is Aldo-keto reductase family 1 member B1 (Rattus norvegicus, UniProt P07943). In words: Inhibition of rat lens aldose reductase.

In turn, `COc1c(-c2ccc(O)c(O)c2)oc2c(OC)c(O)cc(O)c2c1=O` had a 50% inhibitory concentration (IC50) of 0.24 µM. As for `COc1cc(O)cc2oc(-c3ccccc3)cc(=O)c12`, the figure is 1000 µM; as for `COc1cc(-c2cc(=O)c3c(OC)c(OC)c(OC)c(OC)c3o2)ccc1O`, 18.6 µM. Consider `COc1c(OC)c(OC)c2c(=O)cc(-c3ccc(O)c(O)c3)oc2c1OC`, for which the IC50 is 0.0324 µM. As for `COc1cc(-c2cc(=O)c3c(O)c(O)c(O)c(OC)c3o2)ccc1O`, half-maximal inhibition (IC50) required 1.2 µM. In turn, `COc1cc(O)c2c(=O)cc(-c3ccc(O)c(O)c3)oc2c1O` gave an IC50 of 0.229 µM. The molecule `COc1c(O)c(OC)c2c(=O)cc(-c3ccccc3)oc2c1OC` showed an IC50 of 288 µM. With `O=c1cc(-c2ccccc2O)oc2cc(O)ccc12` the figure was 1.66 µM; with `COc1cc2oc(-c3ccc(O)c(O)c3)c(C(C)=O)c(=O)c2c(OC)c1OC`, 8.91 µM; with `COc1cc(-c2cc(=O)c3c(O)c(OC)c(OC)cc3o2)ccc1OC1O[C@H](CO)[C@@H](O)[C@H](O)[C@H]1O` (some centres not stated), 13.2 µM. As for `COc1c(O)c(OC)c2oc(-c3ccc(O)cc3)cc(=O)c2c1O`, the figure is 0.407 µM; as for `COc1cc2oc(-c3ccc(O)c(O)c3)cc(=O)c2c(O)c1O`, 0.302 µM. As for `COc1cc(OC)c2c(=O)c(OC)c(-c3ccc(O)c(O)c3)oc2c1OC`, the figure is 0.17 µM; as for `COc1c(O)c(Cc2ccccc2)c2oc(-c3ccc(O)c(O)c3)cc(=O)c2c1O`, 0.0339 µM. `COc1c(O)c(OC)c2c(=O)cc(-c3ccc(O)c(O)c3)oc2c1OC` showed an IC50 of 0.035 µM.

For `COc1c(O)cc(O)c2c(=O)cc(-c3ccc(O)c(O)c3)oc12`, half-maximal inhibition (IC50) required 0.282 µM. Take `COc1c(-c2ccc(O)c(O)c2)oc2c(OC)c(O)cc(OC)c2c1=O`: the IC50 is 0.282 µM. That is a sub-micromolar value. With `COc1c(OC(C)=O)c(OC(C)=O)c(OC(C)=O)c2c(=O)cc(-c3ccc(OC(C)=O)c(OC(C)=O)c3)oc12` the figure was 0.302 µM. With `COc1cc(-c2cc(=O)c3c(O)c(OC)c(O)c(OC)c3o2)ccc1OC1O[C@H](CO)[C@@H](O)[C@H](O)[C@H]1O` (some centres not stated) the figure was 18.2 µM. As for `COc1cc(-c2cc(=O)c3c(O)c(OC)c(OC4O[C@H](CO)[C@@H](O)[C@H](O)[C@H]4O)c(OC)c3o2)ccc1O` (some centres not stated), the figure is 20.9 µM; as for `COc1cc2oc(-c3ccc(O)c(O)c3)c(OC)c(=O)c2c(OC)c1OC`, 0.269 µM; as for `COc1cc(O)c2c(=O)cc(-c3cc(O)c(OC)cc3OC)oc2c1`, 316 µM. Consider `COc1cc(-c2cc(=O)c3c(OC)c(O)c(OC)c(OC)c3o2)ccc1O`, for which 6.31 µM corresponded to half-maximal inhibition (IC50). This IC50 is about 50-fold lower than that of the molecule before. As for `COc1cc2oc(-c3ccc(O)c(O)c3)c(OC)c(=O)c2c(OC)c1O`, the figure is 0.302 µM. With `COc1c(O)c(O)c(O)c2c(=O)cc(-c3ccccc3)oc12` the figure was 8.13 µM. With `COc1c(O)c(O)c2c(=O)cc(-c3ccccc3)oc2c1OC` the figure was 8.39 µM; with `COc1cc(-c2cc(=O)c3c(O)c(O)c(OC)c(OC)c3o2)ccc1O`, 110 µM; with `COc1c(O)c(O)c2c(=O)cc(-c3ccc(O)cc3)oc2c1OC`, 0.851 µM. Regarding `COc1c(-c2ccc(O)c(O)c2)oc2cc(O)c(O)c(O)c2c1=O`, the IC50 was 0.0575 µM. As for `COc1c(O)c(O)c2c(=O)cc(-c3ccc(O)c(O)c3)oc2c1OC`, the figure is 0.0646 µM; as for `COc1c(O)cc(OC)c2c(=O)cc(-c3ccc(O)c(O)c3)oc12`, 0.0741 µM; as for `COc1c(O)c(O)c(O)c2c(=O)cc(-c3ccc(O)c(O)c3)oc12`, 0.12 µM. As for `COc1cc2oc(-c3ccc(O)c(O)c3)cc(=O)c2c(OC)c1O`, the figure is 0.141 µM; as for `COc1cc(OC)c2c(=O)cc(-c3ccc(O)c(O)c3)oc2c1O`, 0.162 µM; as for `C[C@H]1OC(Oc2c(-c3ccc(O)c(O)c3)oc3cc(O)cc(O)c3c2=O)[C@@H](O)[C@@H](O)[C@@H]1O` (some centres not stated), 1.17 µM. `O=c1cc(-c2ccc(O)cc2)oc2ccc(O)cc12` showed an IC50 of 5.25 µM. Against the preceding molecule, the IC50 is about 4.5-fold higher. With `COc1cc2oc(-c3ccc(O)c(O)c3)c(OC)c(=O)c2c(O)c1O` the figure was 0.813 µM. `COc1ccc(-c2cc(=O)c3c(O)c(OC)c(O)c(OC)c3o2)cc1OC` had an IC50 of 29.5 µM.

The molecule `COc1cc2oc(-c3ccc(OC4O[C@H](CO)[C@@H](O)[C@H](O)[C@H]4O)cc3)cc(=O)c2c(O)c1OC` (some centres not stated) showed an IC50 of 16.2 µM. `COc1cc2oc(-c3ccc(OC4O[C@H](CO)[C@@H](O)[C@H](O)[C@H]4O)c(O)c3)cc(=O)c2c(O)c1OC` (some centres not stated) showed an IC50 of 8.2 µM. As for `COc1c(O)c(O)c(O)c2c(=O)cc(-c3ccc(O)cc3)oc12`, the figure is 1.2 µM.

`COc1cc(O)c2c(=O)cc(-c3cc(OC)c(O)cc3OC)oc2c1` gave an IC50 of 1000 µM. Against the preceding molecule, the IC50 is about 830-fold higher. With `O=c1cc(-c2ccc(O)cc2O)oc2cc(O)ccc12` the figure was 2.29 µM; with `COc1cc(OC)c2c(=O)cc(-c3ccc(O)c(O)c3)oc2c1OC`, 0.0447 µM. As for `COc1cc2oc(-c3ccc(O)c(O)c3)cc(=O)c2c(OC)c1OC`, the figure is 0.0912 µM. With `COc1cc(-c2cc(=O)c3c(O)c(OC)c(OC)c(OC)c3o2)ccc1O` the figure was 45.7 µM; with `COc1cc(O)c2c(=O)cc(-c3ccc(O)c(O)c3)oc2c1OC`, 0.0776 µM. `O=c1cc(-c2ccc(O)c(O)c2)oc2cc(O)c(O)c(O)c12` [6-HYDROXYLUTEOLIN]: the IC50 is 0.204 µM.

As for `COc1c(O)cc2oc(-c3ccc(O)c(O)c3)c(OC)c(=O)c2c1O` [AXILLARIN], it took 0.028 µM to reach half-maximal inhibition (IC50). In turn, `COc1cc2oc(-c3ccc(O)c(O)c3)c(OC)c(=O)c2c(O)c1OC` [CHRYSOSPLENOL D] gave an IC50 of 0.348 µM. For `COc1cc(-c2cc(=O)c3c(O)c(OC)c(OC)cc3o2)ccc1O` [CIRSILENEOL], it took 6.76 µM to reach half-maximal inhibition (IC50). With `COc1cc2oc(-c3ccc(O)c(O)c3)cc(=O)c2c(O)c1OC` [CIRSILIOL] the figure was 0.17 µM. Regarding `COc1cc2oc(-c3ccc(O)cc3)cc(=O)c2c(O)c1OC` [CIRSIMARITIN], the IC50 was 1.41 µM. `COc1ccc(-c2cc(=O)c3c(O)c(OC)c(O)c(OC)c3o2)cc1` [NEVADENSIN] gave an IC50 of 7.24 µM. `COc1c(OC)c(O)c2c(=O)cc(-c3ccc(O)c(O)c3)oc2c1OC` [SIDERITIFLAVONE] gave an IC50 of 0.0389 µM.

The molecule `COc1cc(-c2cc(=O)c3c(O)c(OC)c(O)c(OC)c3o2)ccc1O` [SUDACHITIN] had an IC50 of 4.47 µM. Compared with the last molecule, the IC50 is about 110-fold higher. With `COc1c(OC)c(O)c2c(=O)cc(-c3ccc(O)cc3)oc2c1OC` [XANTHOMICROL] the figure was 0.537 µM.

By IC50 is commonly meant the point on the concentration scale where inhibition reaches its midpoint. Low values mean greater potency, high ones weaker potency.
